Data on one molecule can be found in publication PMC5594043, “CYP79 P450 monooxygenases in gymnosperms: CYP79A118 is associated with the formation of taxiphyllin in Taxus baccata” (Plant Molecular Biology, 2017).

The target in this experiment is T1, CYP79A118 full-length (CYP79A118-M1) (Taxus baccata, UniProt A0A288W866).
T1 construct: full-length ORF; yeast WAT11 microsomes with Arabidopsis CPR1; pESC-Leu2d
In kind it is biochemical. Particulars: 1 mM substrate; NADPH 1 mM; Arabidopsis CPR1 in microsomes; 75 mM sodium phosphate pH 7.0; 25 °C; product indole-3-acetaldoxime.

For the molecule `N[C@@H](Cc1c[nH]c2ccccc12)C(=O)O` [Trp, L-tryptophan], the “LC-MS/MS of aldoxime product, yeast microsomes” value is reported as “the full-length protein as well as the truncated version showed enzymatic activity with the aromatic”.
